Data: US20110020312A1, “METHODS FOR TREATMENT OF METABOLIC DISORDERS USING EPIMETABOLIC SHIFTERS, MULTIDIMENSIONAL INTRACELLULAR MOLECULES, OR ENVIRONMENTAL INFLUENCERS” (priority 2009, published 2011)

Assays:
[1] = rats, oral; cited from earlier work
PaCa-2 cells = assay: Extracellular acidification rate (ECAR), SeaHorse XF analyzer; type: cell-based; conditions: normoxia, high glucose (17 mM)
Description: Environmental influencers (e.g., MIMs or Epi-shifters) may also be identified by changes in cellular energetics. One example of the measurement of cellular energetics are the real-time measures of the consumption of molecular oxygen and/or the change in pH of the media of a cell culture. For example, the ability of a potential epi-shifter to modulate the metabolic state of a cell may be analyzed using, for example, the XF24 Analyzer (Seahorse, Inc.). This technology allows for real time detection of oxygen and pH changes in a monolayer of cells in order to evaluate the bioenergetics of a cell microenvironment. The XF24 Analyzer measures and compares the rates of oxygen consumption (OCR), which is a measure of aerobic metabolism, and extracellular acidification (ECAR), which is a measure of glycolysis, both key indicators of cellular energetics.
(SeaHorse Biosciences Inc, North Billerica, Mass.).
In contrast to normal cells, cancer cells are phenotypically primed to use high glucose for ATP generation (enhanced glycolysis) resulting in higher ECAR (Table 53, ECAR for untreated normoxia 17 mM) at 21 mpH/min. […] The associated decrease in OCR in these cells was likely associated with increased efficiency of the mitochondrial OXPHOS.

SK-MEL-28 mitochondria = assay: LC-MS/MS quantification of Q10, Q10H2 and Q9 in mitochondrial enriched samples; type: cell-based; conditions: for Q10 in mitochondrial enriched sample: 100 μM Q10 in the media; for increase in mitochondrial Q10 levels: 100 μM Q10
Method: To control for sample variance in total material, the levels of cholesterol was also measured to confirm that the differences were not due to sample size errors.

SKBr3 cells = assay: Nexin assay for apoptosis, 24 h Q10; type: cell-based, human; conditions: 50 μM or 100 μM Q10, 24 hours
Description: The 7AAD dye will enter into cells with permeabilized cell membranes; primarily those cells that are in late apoptosis. Annexin-V-PE is a dye that binds to Phosphotidyl serine, which is exposed on the outer surface of the plasma membrane in early apoptotic cells. The Nexin reagent thus can be used to differentiate between different populations of apoptotic cells in a flow cytometer.

## COC1=C(OC)C(=O)C(C/C=C(\C)CC/C=C(\C)CC/C=C(\C)CC/C=C(\C)CC/C=C(\C)CC/C=C(\C)CC/C=C(\C)CC/C=C(\C)CC/C=C(\C)CCC=C(C)C)=C(C)C1=O [Q10, Coenzyme Q10]
[1]
  orally-administered CoQ10 absorbed: 2-3%
PaCa-2 cells
  ECAR rates: significant decrease
SK-MEL-28 mitochondria; 6 hr
  Q10 in mitochondrial enriched sample: 7.21 ng/Sample
SK-MEL-28 mitochondria; 19 hours
  increase in mitochondrial Q10 levels: ~3 fold
SK-MEL-28 mitochondria; 19 hr
  Q10 in mitochondrial enriched sample: 16.77 ng/Sample
SK-MEL-28 mitochondria; 48 hour
  increase in mitochondrial Q10 levels: ~6 fold
SK-MEL-28 mitochondria; 48 hr
  Q10 in mitochondrial enriched sample: 46.63 ng/Sample
SK-MEL-28 mitochondria; exogenous Q10 added to media
  form of Q10 in mitochondria: maintained in the supplied oxidized form
SKBr3 cells
  early and late apoptosis: did not show any significant increases
